Measured values from PubChem BioAssay AID1963858 (Molecular Pharmacology Branch, DTP, NCI, 2024).
“And” between values parts separate entries of the source, which are not always exact repeats. Equal values may be shown once.

Tested on: HOP-62 multicell spheroids with HUVEC/MSC, viability
Assay: Anticancer human tumor HOP-62 cell line growth inhibition [KRAS2];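 note: viability read after a week of compound exposure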;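 for viability, T/C: 100% = DMSO vehicle-treated spheroids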
Settings: for viability, T/C: stronger effect = lower value
Source text: Multicellular complex tumor spheroid response to RAS pathway inhibitors in combination with a targeted agents in patient-derived cell lines with oncogenic KRAS variants from multiple cancer types
A high-throughput screen of multi-cell type tumor spheroids was designed to identify active combinations of targeted small molecules and KRAS pathway inhibitors. Complex spheroids include a stromal component modeled by human endothelial cells (HUVEC) and fibroblasts modeled by human mesenchymal stem cells (MSCs). The concentration ranges selected for each drug and investigational agent were based upon clinically achievable concentrations if the clinical Cmax of the agent was known.
Compounds. The drugs and investigational agents: BI-3406 (NSC825286), BAY-293 (NSC824723), batoprotafib (TNO155; NSC825523), sotorasib (AMG 510; NSC818433), MRTX1257 (NSC819558), elimusertib (BAY 1895344; NSC800525), molibresib (GSK525762; NSC774829), temuterkib (LY3214996; NSC803410), venetoclax (NSC766270), alisertib (NSC759677), olaparib (NSC753686), talazoparib (NSC767125), erdafitinib (NSC781556), ipatasertib (NSC767898), cabozantinib (NSC761068), nintedanib (NSC756659), abemaciclib (NSC768073), docetaxel (NSC628503), trametinib (NSC758246), and sapanisertib (NSC764658) were obtained from the National Cancer Institute (NCI) Developmental Therapeutics Program Chemical Repository. The FDA-approved anticancer drug set is available from the Developmental Therapeutics Program. […] The stock solutions were prepared in dimethyl sulfoxide (DMSO, Sigma-Aldrich, St. Louis, MO, cat. D2650) at 800-fold the tested concentration and stored at -70 degrees C prior to their use. All drugs and investigational agents were tested over a range starting from a high concentration at or near the clinical Cmax and decreasing in half-log increments. If the clinical Cmax for an agent had not been determined, the highest concentration tested was 10 microM.
Cell Culture. All cells were maintained in an incubator at 37 degrees C and 5% CO2 with 95% humidity. The PDC lines were cultured according to standard operating procedures established by the NCI PDMR (https://pdmr.cancer.gov/sops/default.htm). Briefly, all PDCs were thawed and cultured in Matrigel-coated flasks prepared with a working solution of 1X Ham's F-12 nutrient mix, without supplementation (Invitrogen, Waltham, MA, cat. 11765054), 100 U/mL penicillin-streptomycin (Invitrogen, cat. 15140122), and 2.5% Matrigel (Corning Inc., Corning, NY, cat. 354248) for the first three passages. All PDCs were cultured in complete DMEM/F-12 media containing advanced DMEM/F-12 (Invitrogen, cat. 12634028), 4.9% defined fetal bovine serum, heat inactivated (HyClone Laboratories Inc., Logan, UT, cat. SH30070.03HI), 389 ng/mL hydrocortisone (Sigma-Aldrich, cat. H4001), 9.7 ng/mL human EGF recombinant protein (Invitrogen, cat. PHG0313), 23.4 microg/mL adenine (Sigma-Aldrich, cat. A2786), 97.3 U/mL penicillin-streptomycin (Invitrogen, cat. 15140122), 1.9 mM L-glutamine (Invitrogen, cat. 25030081), and 9.7 microM Y-27632 dihydrochloride (Tocris Bioscience, Bristol, United Kingdom, cat. 1254). The PDCs were cultured in complete DMEM/F12 media without 9.7 microM Y-27632 dihydrochloride for at least two passages prior to the screen. The established cell line HOP-62 was cultured in RPMI 1640 medium, HEPES (Invitrogen, cat. 22400105) with 10% defined fetal bovine serum (HyClone Laboratories Inc., cat. SH30070.03) and 2 mM L-glutamine (Invitrogen, cat. 25030081). The pooled donor HUVEC were cultured in endothelial cell growth medium 2 (PromoCell, Heidelberg, Germany, cat. C-22011) and the hMSC were cultured in mesenchymal stem cell growth medium 2 (PromoCell, cat. C-28009). For all experiments, HUVEC and hMSC were used at passages </=5, while the malignant cell lines were used at passages </=15. […]

[1] = compound alone, run of 07/26/2021

SMILES: C=CC(=O)N1CCN(c2nc(=O)n(-c3c(C)ccnc3C(C)C)c3nc(-c4c(O)cccc4F)c(F)cc23)C(C)C1 (configuration not stated)
- viability, T/C (compound 3.16 µM): 65.2% [middle of 17 runs]
- IC50 (compound alone, run of 07/19/2021): > 10 µM and 4.34 µM
- IC50 [1]: 8.23 µM [middle of 5 runs]

SMILES: C=CC(=O)N1CCN(c2nc(OCC3CCCN3C)nc3c2CCN(c2cccc4cccc(C)c24)C3)CC1CC#N (configuration not stated)
- viability, T/C (compound 1 µM): 35.5% [middle of 17 runs]
- IC50 [1]: 622 nM [middle of 6 runs]

SMILES: CC(=O)Nc1cccc(-n2c(=O)n(C3CC3)c(=O)c3c(Nc4ccc(I)cc4F)n(C)c(=O)c(C)c32)c1
- viability, T/C (compound 0.0001 µM): 107% [middle of 5 runs]
- viability, T/C (compound 0.000316 µM): 107% [middle of 5 runs]
- viability, T/C (compound 0.001 µM): 87.9% [middle of 5 runs]
- viability, T/C (compound 0.00316 µM): 61.7% [middle of 5 runs]
- viability, T/C (compound 0.01 µM): 31% [middle of 5 runs]
- viability, T/C (compound 0.0316 µM): 31.2% [middle of 5 runs]
- IC50 (curve of compound): 4.9 nM [middle of 5 runs]

SMILES: CC(=O)OC12COC1CC(O)C1(C)C(=O)C(O)C3=C(C)C(OC(=O)C(O)C(NC(=O)OC(C)(C)C)c4ccccc4)CC(O)(C(OC(=O)c4ccccc4)C21)C3(C)C (configuration not stated)
- viability, T/C (compound 0.01 µM): 41% [middle of 5 runs]
- viability, T/C (compound 0.0316 µM): 36.9% [middle of 5 runs]
- viability, T/C (compound 0.1 µM): 36.1% [middle of 5 runs]
- viability, T/C (compound 0.316 µM): 39.6% [middle of 5 runs]
- viability, T/C (compound 1 µM): 42% [middle of 5 runs]
- viability, T/C (compound 3.16 µM): 42.9% [middle of 5 runs]
- IC50 (curve of compound): < 0.01 µM

SMILES: CC(C)NCC(C(=O)N1CCN(c2ncnc3c2C(C)CC3O)CC1)c1ccc(Cl)cc1 (configuration not stated)
- viability, T/C (compound 0.0316 µM): 101% [middle of 5 runs]
- viability, T/C (compound 0.1 µM): 104% [middle of 5 runs]
- viability, T/C (compound 0.316 µM): 80.4% [middle of 5 runs]
- viability, T/C (compound 1 µM): 62.8% [middle of 5 runs]
- viability, T/C (compound 3.16 µM): 27.9% [middle of 5 runs]
- viability, T/C (compound 10 µM): 13.2% [middle of 5 runs]
- IC50 (curve of compound): 1.49 µM [middle of 5 runs]

SMILES: CC(C)n1nc(-c2ccc3oc(N)nc3c2)c2c(N)ncnc21
- viability, T/C (compound 0.000316 µM): 93.7% [middle of 5 runs]
- viability, T/C (compound 0.001 µM): 80.3% [middle of 5 runs]
- viability, T/C (compound 0.01 µM): 44% [middle of 5 runs]
- viability, T/C (compound 0.0316 µM): 25.6% [middle of 5 runs]
- viability, T/C (compound 0.1 µM): 18.1% [middle of 5 runs]

SMILES: CC1(C)CCC(CN2CCN(c3ccc(C(=O)NS(=O)(=O)c4ccc(NCC5CCOCC5)c([N+](=O)[O-])c4)c(Oc4cnc5[nH]ccc5c4)c3)CC2)=C(c2ccc(Cl)cc2)C1
- viability, T/C (compound 0.0316 µM): 97.8% [middle of 5 runs]
- viability, T/C (compound 0.1 µM): 98.4% [middle of 5 runs]
- viability, T/C (compound 0.316 µM): 93.6% [middle of 5 runs]
- viability, T/C (compound 1 µM): 89.2% [middle of 5 runs]
- viability, T/C (compound 3.16 µM): 73.1% [middle of 5 runs]
- viability, T/C (compound 10 µM): 26.2% [middle of 5 runs]
- IC50 (curve of compound): 5.7 µM [middle of 5 runs]

SMILES: CC1COCCN1c1cc(-c2ccnn2C)c2ccnc(-c3ccn[nH]3)c2n1 (configuration not stated)
- viability, T/C (compound 0.316 µM): 16.9% [middle of 5 runs]
- viability, T/C (compound 1 µM): 16.8% [middle of 5 runs]
- viability, T/C (compound 3.16 µM): 17.2% [middle of 5 runs]

SMILES: CC1OCC2(CCN(c3cnc(Sc4ccnc(N)c4Cl)c(N)n3)CC2)C1N (configuration not stated)
- viability, T/C (compound 0.0316 µM): 103% (2×) and 77%
- viability, T/C (compound 0.1 µM): 92.2% [middle of 19 runs]
- IC50 (compound alone, run of 07/12/2021): 2.29 µM [middle of 6 runs]
- IC50 (curve of compound): > 10 µM and 3.82 µM and 9.82 µM

SMILES: CCN1CCN(Cc2ccc(Nc3ncc(F)c(-c4cc(F)c5nc(C)n(C(C)C)c5c4)n3)nc2)CC1
- viability, T/C (compound 0.00316 µM): 102% [middle of 5 runs]
- viability, T/C (compound 0.01 µM): 102% [middle of 5 runs]
- viability, T/C (compound 0.0316 µM): 99.7% [middle of 5 runs]
- viability, T/C (compound 0.1 µM): 98.1% [middle of 5 runs]
- viability, T/C (compound 0.316 µM): 86.3% [middle of 5 runs]
- viability, T/C (compound 1 µM): 68% [middle of 5 runs]
- IC50 (curve of compound): > 1 µM
